Source: US20230390226A1 (PaxMedica, Inc., priority 2021, published 2023)

Key:
Type in all cases: in vivo, mouse
[1] = test system: B6.129P2-Fmr1tm1Cgr/J transgenic (TG) mice; assay: Step through passive avoidance test, learning and memory
Description: (§1) • 1. N=6 mice per group. • 2. All behavioral testing included a group of untreated wild type (WT) controls. • 3. Dosing for the various groups were as follows: • a. […] Group 2: IP saline, […], administered weekly to animals beginning at 9 weeks of age and continuing for four weeks (i.e. given at Age Weeks 9, 10, 11 and 12). • c. […] Behavioral tests for all groups (Groups 1-5) began the following day after the last day of IN dosing (Weeks 13-14 of age). • 5. Blood samples (for PK testing) were collected from all mice at the end of Week 12 of age, just prior to starting the behavioral tests in Week 13 of age. • 6. Brain tissue (for biochemistry testing) was harvested from all mice upon sacrifice at the conclusion of all behavioral testing at the end of Week 13-14 of age.
(§2) Male B6.129P2-Fmr1tm1Cgr/J TG (TG) mice were purchased from Jackson Laboratories, Bar Harbor, Maine. These mice were of approximately 8 (±1) weeks of age. Mice were maintained in group cages (6 mice per cage based on treatment group) in a controlled environment (temperature: 21.5±4.5° C./relative humidity: 35-55%) under a standard 12 hour light/12 hour dark lighting cycle (lights on at 06:00). Mice accommodated to the research facility for the remainder of the week. Dosing began on the following Monday. Body weights of all mice were recorded for health monitoring purposes.
Dosing was carried out over the course of 28 days as instructed by the study Sponsor. The fifth and final behavioral test, the Step Through (ST) Passive Avoidance Test, was performed over two days (days 38 and 39) with the first day as a Training Day and the second day as a Test Day. Passive avoidance is fear-motivated tests classically used to assess short-term or long-term memory on rodents. […] The mouse is then allowed to freely explore the SmartCage™ and enter the dark box “Dark Zone” at its own discretion; dark box entry latency is automatically recorded. • 4. […] The mouse may freely explore the SmartCage™ for 5 minutes, and avoidance of the Dark Box due to contextual-fear association is assessed. • 8. […]

[2] = test system: B6.129P2-Fmr1tm1Cgr/J transgenic (TG) mice; assay: Locomotor activity test (SmartCage)
Description: as §1, with “type” for “type (WT)”
Male B6.129P2-Fmr1tm1Cgr/J TG (TG) mice were purchased from Jackson Laboratories, Bar Harbor, Maine. These mice were of approximately 8(+1) weeks of age. […] Body weights of all mice were recorded for health monitoring purposes.
Dosing was carried out over the course of 28 days as instructed by the study Sponsor. […] Day 1 to Day 2: Locomotor Activity recording is assessed using the SmartCage™ • 2. […]
Each mouse was placed in a clean plastic, transparent home cage within the SmartCage™. […] Active Time, Travel Distance, and Rearing Activity were assessed for each mouse. Data analyzed based on treatment group.

[3] = test system: B6.129P2-Fmr1tm1Cgr/J transgenic (TG) mice; assay: Light/dark preference test (LDT), anxiety-like behavior
Description: • 1. N=6 mice per group. • 2. All behavioral testing included a group of untreated wild type controls. • 3. Dosing for the various groups were as follows: • a. […] Group 2: IP saline, […], administered weekly to animals beginning at 9 weeks of age and continuing for four weeks (i.e. given at Age Weeks 9, 10, 11 and 12). • c. […] Behavioral tests for all groups (Groups 1-5) began the following day after the last day of IN dosing (Weeks 13-14 of age). • 5. Blood samples (PK testing) were collected from all mice at the end of 12 Weeks of age, just prior to starting the behavioral tests in Week 13. • 6. Brain tissue (for biochemistry testing) was harvested from all mice upon sacrifice at the conclusion of all behavioral testing at the end of 13-14 Weeks of age.
as §2, with “TG” for “TG (TG)”, “8(+1)” for “8 (±1)”, “12-hour light/12-hour” for “12 hour light/12 hour”
Dosing was carried out over the course of 28 days as instructed by the study sponsor. • 1. Prior to the beginning of the light/dark test, a dark box (red transparent enclosure with an opening for the mouse to enter) is placed in the SmartCage™ • 2. An individual mouse is placed in the open/non-dark box side (“Light Zone”), with its head facing away from the dark box. • 3. The mouse is then allowed to freely explore the SmartCage™ and enter the dark box “Dark Zone” at its own discretion over a 10-minute span. • 4. Anxiety-like behavior is assessed based on the SmartCage™ monitoring of time spent in the Light Zone, the number of Light Zone entries, and % Time Spent in the Light Zone. • 5. […]

Cc1ccc(C(=O)Nc2ccc(S(=O)(=O)O)c3cc(S(=O)(=O)O)cc(S(=O)(=O)O)c23)cc1NC(=O)c1cccc(NC(=O)Nc2cccc(C(=O)Nc3cc(C(=O)Nc4ccc(S(=O)(=O)O)c5cc(S(=O)(=O)O)cc(S(=O)(=O)O)c45)ccc3C)c2)c1 [suramin, 1,3,5-Naphthalenetrisulfonic acid, 8,8′-[carbonylbis[imino-3,1-phenylenecarbonylimino(4-methyl-3,1-phenylene)carbonylimino]]bis-]
dark zone entry latency ([1]; Test Day, IP 20 mg/kg weekly): shortest latency
percentage of time spent in the light zone ([1]; test day, IN groups): greater than 70%
total light zone time ([1]; test day, IP 20 mg/kg weekly): lower total time
active time ([2]; IN daily, weekly and every 2 days, ~24 h recording): greater activity compared to the WT control group
rearing count ([2]; IN every 2 days): comparable to the WT control group
percentage of time spent in the light zone ([3]; IN weekly for 4 weeks): higher percentage of time spent in the Light Zone
total time spent in the light zone ([3]; IN weekly for 4 weeks, 10-minute test): ~6.5 min
dark zone entry latency ([3]; all IN groups (daily, every other day, weekly)): 60 to 65 s
